How the values were obtained:
KRAS(G12C) = KRAS(G12C) (Homo sapiens, UniProt P01116, G12C); experiment: KRAS(G12C)/SOS1 homogeneous time-resolved fluorescence (HTRF) assay; set-up: purchased Cisbio 63ADK000CB16PEG; details: absence of GTP, 4° C. for 3 hr, read-out: KRAS (G12C) binding
Description: KRAS(G12C)/SOS1 Homogeneous Time-Resolved Fluorescence (HTRF) Assay
Binding of test compounds to KRAS(G12C) protein, which in turn blocks KRAS(G12C) interaction with the SOS1 protein, was measured in the absences of GTP by homogeneous time-resolved fluorescence (HTRF) using the KRAS-G12C/SOS1 Binding Assay Kit (Cisbio, #63ADK000CB16PEG), following the manufacturer's instructions, except as noted. 3-fold serial dilutions of each test compound were prepared ranging from […] to 1.02 nM. The test compound was mixed and incubated with reaction components, incubated in a sealed plate at 4° C. for 3 hr and fluorescence was measured using a PerkinElmer Envision plate reader.

HSP90a protein = target: T1, HSP90a protein (Homo sapiens, UniProt P07900); experiment: HSP90α-binding fluorescent polarization (FP) assay, BODIPY-labeled RNK04010 probe; details: FP competition with RNK04010 (BODIPY-labeled), 5 nM, 300 min at 25° C.
T1 construct: purchased BPS Bioscience 50298
In short: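 Polarization signal was read after equilibration at 25° C, for 120 min with FITC-geldanamycin or 300 min with the BODIPY-tagged RNK04010 probe, each at 5 nM final. Compounds spanned 20 μM down to 5.2 nM in 2.5-fold dilutions against the HSP90a N-terminal domain.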

[1] = tested on: MIA PaCa-2 human pancreatic carcinoma; experiment: MIA PaCa-2 CCK-8 proliferation assay; assay type: cell-based; details: Homo sapiens, MIA PaCa-2, 72 h, MIA PaCa-2 cells
In short: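 Three KRAS(G12C) lines are used, MIA PaCa-2 at two mutant copies and the NSCLC lines NCI-H358 and NCI-H23 at one. Each compound is titrated 3-fold from 20 μM to 1.02 nM, and proliferation is scored by CCK-8.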

KRAS(G12C), sequence (P01116 1-188 isoform P01116-2 G12C): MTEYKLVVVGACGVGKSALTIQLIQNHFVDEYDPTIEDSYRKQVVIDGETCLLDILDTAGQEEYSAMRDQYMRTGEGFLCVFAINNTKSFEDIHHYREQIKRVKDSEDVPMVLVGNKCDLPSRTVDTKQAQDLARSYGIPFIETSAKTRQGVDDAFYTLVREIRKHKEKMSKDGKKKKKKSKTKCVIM

Row | Structure (SMILES) | IC50 (KRAS(G12C)) [nM] | IC50 (HSP90a protein) [nM] | EC50 [1] [nM]
1 | C=CC(=O)N1CCN(c2nc(OC[C@@H]3C[C@@H](NC(=O)C4CCN(Cc5ccc(-n6c(O)nnc6-c6cc(C(C)C)c(O)cc6O)cc5)CC4)CN3C)nc3c2CCN(c2cccc4cccc(Cl)c24)C3)C[C@@H]1CC#N [Compound 205, N-((3R,5S)-5-(((4-((S)-4-acryloyl-3-(cyanomethyl)piperazin-1-yl)-7-(8-chloronaphthalen-1-yl)-5,6,7,8-tetrahydropyrido[3,4-d]pyrimidin-2-yl)oxy)methyl)-1-methylpyrrolidin-3-yl)-1-(4-(3-(2,4-dihydroxy-5-isopropylphenyl)-5-hydroxy-4H-1,2,4-triazol-4-yl)benzyl)piperidine-4-carboxamide] | 100 to 1000 | < 100 | 100 to 1000
2 | C=CC(=O)N1CCN(c2nc(OC[C@@H]3C[C@H](N4CCC5(CCN(C(=O)C6CCN(Cc7ccc(-n8c(O)nnc8-c8cc(C(C)C)c(O)cc8O)cc7)CC6)CC5)CC4)CN3C)nc3c2CCN(c2cccc4cccc(Cl)c24)C3)C[C@@H]1CC#N [Compound 318, 2-[(2S)-4-[7-(8-chloronaphthalen-1-yl)-2-{[(2S,4S)-4-{9-[1-({4-[3-(2,4-dihydroxy-5-isopropylphenyl)-5-hydroxy-1,2,4-triazol-4-yl]phenyl}methyl)piperidine-4-carbonyl]-3,9-diazaspiro[5.5]undecan-3-yl}-1-methylpyrrolidin-2-yl]methoxy}-5H,6H,8H-pyrido[3,4-d]pyrimidin-4-yl]-1-(prop-2-enoyl)piperazin-2-yl]acetonitrile] | < 100 | < 100 | 100 to 1000
3 | C=CC(=O)N1CCN(c2nc(OC[C@@H]3C[C@H](N4CCC(C(=O)N5CCN(CCNC(=O)c6nnc(-c7cc(C(C)C)c(O)cc7O)n6-c6ccccc6)CC5)CC4)CN3C)nc3c2CCN(c2cccc4cccc(Cl)c24)C3)C[C@@H]1CC#N [Compound 320, N-[2-(4-{1-[(3S,5S)-5-({[7-(8-chloronaphthalen-1-yl)-4-[(3S)-3-(cyanomethyl)-4-(prop-2-enoyl)piperazin-1-yl]-5H,6H,8H-pyrido[3,4-d]pyrimidin-2-yl]oxy}methyl)-1-methylpyrrolidin-3-yl]piperidine-4-carbonyl}piperazin-1-yl)ethyl]-5-(2,4-dihy-droxy-5-isopropylphenyl)-4-phenyl-1,2,4-triazole-3-carboxamide] | < 100 | < 100 | 100 to 1000
4 | C=CC(=O)N1CCN(c2nc(OC[C@@H]3C[C@@H](OCC(=O)N4CCC(Cc5ccc(-n6c(C(=O)NCC(F)(F)F)nnc6-c6cc(C(C)C)c(O)cc6O)cc5)CC4)CN3C)nc3c2CCN(c2cccc4cccc(Cl)c24)C3)C[C@@H]1CC#N [Compound 303, 4-(4-((1-(2-(((3R,5S)-5-(((4-((S)-4-acryloyl-3-(cyanomethyl)piperazin-1-yl)-7-(8-chloronaphthalen-1-yl)-5,6,7,8-tetrahydropyrido[3,4-d]pyrimidin-2-yl)oxy)methyl)-1-methylpyrrolidin-3-yl)oxy)acetyl)piperidin-4-yl)methyl)phenyl)-5-(2,4-dihydroxy-5-isopropylphenyl)-N-(2,2,2-trifluoroethyl)-4H-1,2,4-triazole-3-carboxamide] | 100 to 1000 | < 100 | 100 to 1000
5 | C=CC(=O)N1CCN(c2nc(OC[C@@H]3C[C@H](NC(=O)C4CCN(C(=O)C5CCN(Cc6ccc(-n7c(O)nnc7-c7cc(C)c(O)cc7O)cc6)CC5)CC4)CN3C)nc3c2CCN(c2cccc4cccc(Cl)c24)C3)C[C@@H]1CC#N [Compound 312, N-[(3S,5S)-5-({[7-(8-chloronaphthalen-1-yl)-4-[(3S)-3-(cyanomethyl)-4-(prop-2-e-noyl)piperazin-1-yl]-5H,6H,8H-pyrido[3,4-d]pyrimidin-2-yl]oxy}methyl)-1-meth-ylpyrrolidin-3-yl]-1-[1-({4-[3-(2,4-dihydroxy-5-methylphenyl)-5-hydroxy-1,2,4-triazol-4-yl]phenyl}methyl)piperidine-4-carbonyl]piperidine-4-carboxamide] | < 100 | < 100 | > 1000

Further lines, results first:

Row | IC50 (KRAS(G12C)) [nM] | IC50 (HSP90a protein) [nM] | EC50 [1] [nM] | Structure (SMILES)
6 | 100 to 1000 | < 100 | 100 to 1000 | C=CC(=O)N1CCN(c2nc(OC[C@@H]3C[C@H](N(C)CCC(=O)N4CCN(Cc5ccc(-n6c(C(=O)NCC(F)(F)F)nnc6-c6cc(C(C)C)c(O)cc6O)cc5)CC4)CN3C)nc3c2CCN(c2cccc4cccc(Cl)c24)C3)C[C@@H]1CC#N [Compound 337, 4-(4-{[4-(3-{[(3S,5S)-5-({[7-(8-chloronaphthalen-1-yl)-4-[(3S)-3-(cyanomethyl)-4-(prop-2-enoyl)piperazin-1-yl]-5H,6H,8H-pyrido[3,4-d]pyrimidin-2-yl]oxy}methyl)-1-methylpyrrolidin-3-yl](methyl)amino}propanoyl)piperazin-1-yl]methyl}phen-yl)-5-(2,4-dihydroxy-5-isopropylphenyl)-N-(2,2,2-trifluoroethyl)-1,2,4-triazole-3-carboxamide]
7 | 100 to 1000 | < 100 | < 100 | C=CC(=O)N1CCN(c2nc(OC[C@@H]3CC[C@H](C(=O)N4CCN(C(=O)C5CCN(Cc6ccc(-n7c(C(=O)NCC(F)(F)F)nnc7-c7cc(C(C)C)c(O)cc7O)cc6)CC5)CC4)N3C)nc3c2CCN(c2cccc4cccc(Cl)c24)C3)C[C@@H]1CC#N [Compound 304, 4-{4-[(4-{4-[(2R,5S)-5-({[7-(8-chloronaphthalen-1-yl)-4-[(3S)-3-(cyanomethyl)-4-(prop-2-enoyl)piperazin-1-yl]-5H,6H,8H-pyrido[3,4-d]pyrimidin-2-yl]oxy}methyl)-1-methylpyrrolidine-2-carbonyl]piperazine-1-carbonyl}piperidin-1-yl)methyl]p-henyl}-5-(2,4-dihydroxy-5-isopropylphenyl)-N-(2,2,2-trifluoroethyl)-1,2,4-triazole-3-carboxamide]
8 | < 100 | < 100 | < 100 | C=CC(=O)N1CCN(c2nc(OC[C@@H]3CC[C@H](C(=O)N4CCN(C(=O)C5CCN(Cc6ccc(-n7c(C(=O)NCC(F)(F)F)nnc7-c7cc(C)c(O)cc7O)cc6)CC5)CC4)N3C)nc3c2CCN(c2cccc4cccc(Cl)c24)C3)C[C@@H]1CC#N [Compound 332, 4-{4-[(4-{4-[(2R,5S)-5-({[7-(8-chloronaphthalen-1-yl)-4-[(3S)-3-(cyanomethyl)-4-(prop-2-enoyl)piperazin-1-yl]-5H,6H,8H-pyrido[3,4-d]pyrimidin-2-yl]oxy}methyl)-1-methylpyrrolidine-2-carbonyl]piperazine-1-carbonyl}piperidin-1-yl)methyl]phenyl}-5-(2,4-dihydroxy-5-methylphenyl)-N-(2,2,2-trifluoroethyl)-1,2,4-triazole-3-carboxamide]
9 | < 100 | < 100 | < 100 | C=CC(=O)N1CCN(c2nc(OC[C@@H]3C[C@H](N4CCC(C(=O)N5CCN(Cc6ccc(-n7c(C(=O)NCC(F)(F)F)nnc7-c7cc(C(C)C)c(O)cc7O)cc6)CC5)CC4)CN3C)nc3c2CCN(c2cccc4cccc(Cl)c24)C3)C[C@@H]1CC#N [Compound 314, 4-{4-[(4-{1-[(3S,5S)-5-({[7-(8-chloronaphthalen-1-yl)-4-[(3S)-3-(cyanomethyl)-4-(prop-2-enoyl)piperazin-1-yl]-5H,6H,8H-pyrido[3,4-d]pyrimidin-2-yl]oxy}methyl)-1-methylpyrrolidin-3-yl]piperidine-4-carbonyl}piperazin-1-yl)methyl]phenyl}-5-(2,4-dihydroxy-5-isopropylphenyl)-N-(2,2,2-trifluoroethyl)-1,2,4-triazole-3-carboxamide]
10 | 100 to 1000 | < 100 | < 100 | C=CC(=O)N1CCN(c2nc(OC[C@@H]3C[C@H](C(=O)N4CCN(Cc5ccc(-n6c(C(=O)NCC(F)(F)F)nnc6-c6cc(C(C)C)c(O)cc6O)cc5)CC4)CN3C)nc3c2CCN(c2cccc4cccc(Cl)c24)C3)C[C@@H]1CC#N [Compound 333, 4-[4-({4-[(3S,5S)-5-({[7-(8-chloronaphthalen-1-yl)-4-[(3S)-3-(cyanomethyl)-4-(prop-2-enoyl)piperazin-1-yl]-5H,6H,8H-pyrido[3,4-d]pyrimidin-2-yl]oxy}methyl)-1-methylpyrrolidine-3-carbonyl]piperazin-1-yl}methyl)phenyl]-5-(2,4-dihydroxy-5-isopropylphenyl)-N-(2,2,2-trifluoroethyl)-1,2,4-triazole-3-carboxamide]
11 | < 100 | < 100 | 100 to 1000 | C=CC(=O)N1CCN(c2nc(OC[C@@H]3C[C@H](C(=O)N4CCN(Cc5ccc(-n6c(C(=O)NCCN7CCN(S(C)(=O)=O)CC7)nnc6-c6cc(C(C)C)c(O)cc6O)cc5)CC4)CN3C)nc3c2CCN(c2cccc4cccc(Cl)c24)C3)C[C@@H]1CC#N [Compound 344, 4-[4-({4-[(3S,5S)-5-({[7-(8-chloronaphthalen-1-yl)-4-[(3S)-3-(cyanomethyl)-4-(pr-op-2-enoyl)piperazin-1-yl]-5H,6H,8H-pyrido[3,4-d]pyrimidin-2-yl]oxy}methyl)-1-methylpyrrolidine-3-carbonyl]piperazin-1-yl}methyl)phenyl]-5-(2,4-dihydroxy-5-isopropylphenyl)-N-[2-(4-methanesulfonylpiperazin-1-yl)ethyl]-1,2,4-triazole-3-carboxamide]
